# Test results published in PubChem BioAssay AID816 (SRMLSC, 2007).
# Active and inactive are the calls of the source. How the calls were made is not given here.
# Test system: S. cerevisiae GAL1 promoter reporter activation counterscreen
# Experiment: yeast Gal1p promoter activation – S. cerevisiae, artefact control for yeast lifespan extension project (AID 816);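 further: yeast growth read after 24 h of incubation with compounds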
row,SMILES,EC50
1,Cc1ccc2nc(-c3ccc(NC(=O)CSc4ccccc4)cc3)[nH]c2c1,> 40 µM (inactive)
2,O=S1(=O)C=C(Sc2nc3ccccc3s2)c2ccccc21,> 40 µM (inactive)
3,CCOC(=O)CC1=NN(c2ccccc2)C(=O)/C1=C\c1ccc(OC)cc1OC,> 40 µM (inactive)
4,O=c1cc(-c2c(F)c(F)c(F)c(F)c2F)oc2c(F)c(F)c(F)c(F)c12,> 40 µM (inactive)
5,CCCC(=O)Nc1ccc(C(=O)NNC(=S)NC(=O)c2cccs2)cc1,> 40 µM (inactive)
6,COC(=O)c1cc(OC)c(OC)cc1NC(=S)Nc1cccc(C(C)=O)c1,> 40 µM (inactive)
7,O=C1/C(=C\c2cccnc2)CN(Cc2ccccc2)C/C1=C\c1cccnc1,> 40 µM (inactive)
8,O=C(Nc1cccnc1)c1c(O)c2cccc3c2n(c1=O)CC3,> 40 µM (inactive)
9,Cc1cccc(N2C(=O)C(Oc3ccc(Cl)cc3Cl)C2C=O)c1C (stereo unspecified),> 40 µM (inactive)
10,COc1ccc(C(=O)C(CN2CCOCC2)c2ccccc2)cc1F (stereo unspecified),> 40 µM (inactive)
11,O=C(NCc1ccco1)c1c(O)c2cccc3c2n(c1=O)CCC3,> 40 µM (inactive)
